Data as given in patent US11718628B2, “SREBP inhibitors comprising a 6-membered central ring” (Capulus Therapeutics, LLC, priority 2018, dated 2023).
In brackets after ≈: the same amount, converted by molar mass.

Legend:
[1] = Kinetic solubility; assay type: physicochemical; conditions: aqueous buffer, kinetic from dmso stock, pH 7.4 buffer, room temperature, 1.0% DMSO, read-out: I: kinetic solubility class
Protocol: Kinetic Solubility Procedure: A 10 mM stock solution of a compound was prepared in DMSO, then 4 μL of the stock was added to a deep well plate containing 396 μL of pH 7.4 buffer. The sample plate was vortexed at 800 rpm for 24 h on thermomixer at room temperature. The plate was sealed well during the incubation process. The DMSO content in the sample was 1.0%. The concentration of the evaluated compound in the final incubation was 100 μM. At the end of the incubation period, the sample plate was centrifuged at 4000 rpm for 10 min and analyzed in LC-UV against a calibration curve (CC). Values <10 μg/mL=Low; 10 to 60 μg/mL=Medium; >60 μg/mL=High.

[2] = Half-life in human liver microsomes; assay type: in vitro ADME; conditions: human, liver microsomes, NADPH, 37° C., read-out: G: half-life human liver microsomes
Protocol: (§1) Half-life Human Microsomes: Compounds were evaluated for stability in human liver microsomes. A 10 mM stock solution of the compound being evaluated was prepared in DMSO and diluted with water:acetonitrile (1:1) to a concentration of 1 mM. A working concentration of 100 μM was prepared by further dilution with water:acetonitrile (1:1). To make the preincubation mixture, 2.5 μL of the diluted compound was combined with 75 μL of human liver microsomes at 3.33 mg/mL, and 85 μL of 100 mM potassium phosphate buffer, and this mixture was pre-incubated for 10 min at 37° C. To make the 60 minute mixture without cofactor, 32.5 μL of the preincubation mixture was combined with 17.5 μL of 100 mM potassium phosphate buffer and incubated for 60 min at 37° C. To make the 0 min sample with cofactor (NADPH), 16.25 μL of the preincubation mixture was combined with 200 μL of acetonitrile containing internal standard and 8.75 μL of cofactor (NADPH). To make the incubation mixture, 62 μL of cofactor (2.85 mM) was combined with the remaining incubation mixture, and incubated for 60 min at 37° C. To prepare the sample mixture to be evaluated, 25 μL incubation mixture was combined with 200 μL of acetonitrile containing internal standard and vortexed for 5 min at 1200 rpm, then centrifuged for 10 min at 4000 rpm. The supernatant was diluted 2 fold with water and injected on LC-MS/MS. The sample mixture was evaluated by LC-MS/MS using 10 mM ammonium acetate with 0.1% FA as the aqueous mobile phase, and methanol as the organic mobile phase.

[3] = Half-life in mouse liver microsomes; assay type: in vitro ADME; conditions: mouse, liver microsomes, read-out: H: half-life of mouse liver microsomes
Protocol: as §1
Half-life Mouse Microsomes: Compounds were evaluated in mouse liver microsomes following a similar procedure as described above for human liver microsomes. A similar procedure could be used to evaluate compounds in rat liver microsomes.

SMILES | solubility kinetic at 24 h [1] [µg/mL] | half-life at 1 µM [2] [min] | half-life at 1 µM [3] [min]
CC(C)(C)c1cc(-c2cncc(-c3ccc(C(=O)N4CCC(O)CC4)cc3Cl)c2F)ccn1 | 10 to 60 (≈ 21.4 to 128 µM) | 9.52 | 39.2
CC(C)(C)c1cc(-c2cncc(-c3ccc(NC(=O)OCCN4CCCC4)cc3Cl)c2)ccn1 | 10 to 60 (≈ 20.9 to 125 µM) | 53.2 | 14.4
COc1ncc(-c2ccc(C(=O)N3CCC(O)CC3)cc2Cl)cc1-c1ccnc(C(C)(C)C)c1 | 10 to 60 (≈ 20.8 to 125 µM) | 16.1 | 38.5
Cc1ncc(-c2ccc(C(=O)N3CCC(O)CC3)cc2Cl)cc1-c1ccnc(C(C)(C)C)c1 | 10 to 60 (≈ 21.6 to 129 µM) | 7.8 | 41.7
O=C(c1ccc(-c2cncc(-c3ccnc(C4CC4)c3)c2)c(Cl)c1)N1CCC(F)C(O)C1 (stereo not drawn) | < 10 | 20.5 | 68.3
O=C(Nc1ccc(-c2cncc(-c3ccnc4c3OCCO4)c2)c(Cl)c1)OC1CC1 | < 10 | 9.94 | 16.4
O=C(c1ccc(-c2cncc(-c3ccnc(C4CC4)c3)c2)c(Cl)c1)N1CCC(F)CC1 | 10 to 60 (≈ 22.9 to 138 µM) | 7.28 | 12.4
O=C(c1ccc(-c2cncc(-c3ccnc(C4CC4)c3)c2)c(Cl)c1)N1CCC[C@H]1CO | 10 to 60 (≈ 23 to 138 µM) | 16.2 | 66.7
O=C(c1ccc(-c2cncc(-c3ccnc(C4CC4)c3)c2)c(Cl)c1)N1CC[C@H](O)C1 | 10 to 60 (≈ 23.8 to 143 µM) | 39.2 | 87.2
O=C(c1ccc(-c2cncc(-c3ccnc(C4CC4)c3)c2)c(Cl)c1)N1CC2CCC(C1)C2O (stereo not drawn) | 10 to 60 (≈ 21.7 to 130 µM) | 21.3 | 42.4
CC(C)(C)c1cc(-c2cncc(-c3ccc(C(=O)N4CCC(O)C(O)CC4)cc3Cl)c2)ccn1 (stereo not drawn) | 10 to 60 (≈ 20.8 to 125 µM) | 27.7 | 120
CS(=O)(=O)Nc1ccc(-c2cncc(-c3ccnc4c3OCCO4)c2)c(Cl)c1 | < 10 | 37.4 | 104
CC(C)OC(=O)Nc1ccc(-c2cncc(-c3ccnc(C(C)(C)O)c3)c2)c(Cl)c1 | < 10 | 120 | 120
CC(C)(O)c1cc(-c2cncc(-c3ccc(NS(C)(=O)=O)cc3Cl)c2)ccn1 | < 10 | 116 | 120
CC(C)OC(=O)Nc1ccc(-c2cncc(-c3ccnc(C4(F)CCC4)c3)c2)c(Cl)c1 | < 10 | 55.9 | 97.9
CC(C)(CF)c1cc(-c2cncc(-c3ccc(C(=O)N4CCC(O)CC4)cc3Cl)c2)ccn1 | 10 to 60 (≈ 21.4 to 128 µM) | 41.3 | 77.5

SMILES | solubility kinetic at 24 h [1] [µg/mL] | half-life at 1 µM [2] [min] | half-life at 1 µM [3] [min]
CC(C)(C)c1cc(-c2cncc(-c3ccc(C(=O)N4CCC(=O)C(F)C4)cc3Cl)c2)ccn1 (stereo not drawn) | 10 to 60 (≈ 21.5 to 129 µM) | 11.2 | 1.94
CC1CC(O)CC(C)N1C(=O)c1ccc(-c2cncc(-c3ccnc(C(C)(C)C)c3)c2)c(Cl)c1 (stereo not drawn) | 10 to 60 (≈ 20.9 to 126 µM) | 6.33 | 47.8
CC(C)(C)c1cc(-c2cncc(-c3ccc(C(=O)N4CCC(O)(O)C(F)(F)C4)cc3Cl)c2)ccn1 | 10 to 60 (≈ 19.9 to 120 µM) | 43.7 | 32.5
O=C(c1ccc(-c2cncc(-c3ccnc(C4(O)CCC4)c3)c2)c(Cl)c1)N1CCC(O)CC1 | 10 to 60 (≈ 21.6 to 129 µM) | 76.7 | 120
CC(C)(C)c1cc(-c2cncc(-c3ccc(C(=O)N(CCCO)CCCO)cc3Cl)c2)ccn1 | 10 to 60 (≈ 20.7 to 124 µM) | 9.51 | 40.4
O=C(c1ccc(-c2cncc(-c3ccnc(C4(F)CCC4)c3)c2)c(Cl)c1)N1CCC(O)CC1 | 10 to 60 (≈ 21.5 to 129 µM) | 32.3 | 54.4
CS(=O)(=O)Nc1ccc(-c2cncc(-c3ccnc(C4CC4)c3)c2)c(Cl)c1 | < 10 | 112 | 86.7
CC(C)OC(=O)Nc1ccc(-c2cncc(-c3ccnc(C4CC4)c3)c2)c(Cl)c1 | < 10 | 120 | 81.1
CC(C)OC(=O)N(C)c1ccc(-c2cncc(-c3ccnc(C(C)(C)C)c3)c2)c(Cl)c1 | < 10 | 63.6 | 105
CC(C)(C)c1cc(-c2cncc(-c3ccc(C(=O)N4CC5(CC(O)C5)C4)cc3Cl)c2)ccn1 | 10 to 60 (≈ 21.6 to 130 µM) | 1.79 | 120
CC(C)(C)c1cc(-c2cncc(-c3ccc(C(=O)N4CC5C(O)C5C4)cc3Cl)c2)ccn1 (stereo not drawn) | 10 to 60 (≈ 22.3 to 134 µM) | 3.17 | 20
CC(C)(C)c1cc(-c2cncc(-c3ccc(NC(=O)N4CCC(O)CC4)cc3Cl)c2)ccn1 | < 10 | 19.6 | > 120
O=C(c1ccc(-c2cncc(-c3ccnc(C4CC4)c3)c2)c(Cl)c1)N1CCC(O)CC1 | 10 to 60 (≈ 23 to 138 µM) | 36.5 | 54.9
CC(C)(C)c1cc(-c2cncc(-c3ccc(NS(=O)(=O)CC(F)(F)F)cc3Cl)c2)ccn1 | < 10 | 6.03 | > 120
CC1(O)CCC(C(=O)c2ccc(-c3cncc(-c4ccnc(C(C)(C)CO)c4)c3)c(Cl)c2)CC1 (stereo not drawn) | 10 to 60 (≈ 20.9 to 125 µM) | 10 | 63.6

The remaining lines, values ahead:

solubility kinetic at 24 h [1] [µg/mL] | half-life at 1 µM [2] [min] | half-life at 1 µM [3] [min] | SMILES
10 to 60 (≈ 20.9 to 126 µM) | 14 | 64.3 | CC(C)(C)c1cc(-c2cncc(-c3ccc(C(=O)N4CCC[C@@H]4C(C)(C)O)cc3Cl)c2)ccn1
10 to 60 (≈ 20.9 to 126 µM) | 16.8 | 27.4 | CC(C)(C)c1cc(-c2cncc(-c3ccc(C(=O)N4CCC[C@H]4C(C)(C)O)cc3Cl)c2)ccn1
10 to 60 (≈ 21.4 to 128 µM) | 120 | 98.5 | CC(C)(C)c1cc(-c2cncc(-c3ccc(C(=O)N4CCC(O)C(F)C4)cc3Cl)c2)ccn1 (stereo not drawn)
10 to 60 (≈ 20.6 to 123 µM) | 28.1 | 88.6 | CC(C)(C)c1cc(-c2cncc(-c3ccc(C(=O)N4CCC(O)C(F)(F)C4)cc3Cl)c2)ccn1 (stereo not drawn)
10 to 60 (≈ 21.4 to 128 µM) | 12.2 | 21.7 | CC(C)(C)c1cc(-c2cncc(-c3ccc(C(=O)N4CCC(F)C(O)C4)cc3Cl)c2)ccn1 (stereo not drawn)
10 to 60 (≈ 21.6 to 129 µM) | 59 | 38.3 | CC(C)(C)c1cc(-c2cncc(-c3ccc(C(=O)N4CCC4C(C)(C)O)cc3Cl)c2)ccn1 (stereo not drawn)
10 to 60 (≈ 21.6 to 129 µM) | 7.35 | 12.4 | CC(C)(C)c1cc(-c2cncc(-c3ccc(C(=O)N4CC(C(C)(C)O)C4)cc3Cl)c2)ccn1
10 to 60 (≈ 22.2 to 133 µM) | 10.1 | 32 | CC(C)(C)c1cc(-c2cncc(-c3ccc(C(=O)N4CCC[C@@H]4CO)cc3Cl)c2)ccn1
10 to 60 (≈ 22.2 to 133 µM) | 5.52 | 28.6 | CC(C)(C)c1cc(-c2cncc(-c3ccc(C(=O)N4CCC[C@H]4CO)cc3Cl)c2)ccn1
10 to 60 (≈ 22.2 to 133 µM) | 12.9 | 28 | CC1(O)CCN(C(=O)c2ccc(-c3cncc(-c4ccnc(C(C)(C)C)c4)c3)c(Cl)c2)C1 (stereo not drawn)
10 to 60 (≈ 22.9 to 138 µM) | 14.4 | 38.7 | CC(C)(C)c1cc(-c2cncc(-c3ccc(C(=O)N4CC[C@H](O)C4)cc3Cl)c2)ccn1
10 to 60 (≈ 22.9 to 138 µM) | 5.01 | 31.5 | CC(C)(C)c1cc(-c2cncc(-c3ccc(C(=O)N4CC[C@@H](O)C4)cc3Cl)c2)ccn1
10 to 60 (≈ 22.9 to 138 µM) | 6.72 | 39.8 | CC1(O)CN(C(=O)c2ccc(-c3cncc(-c4ccnc(C(C)(C)C)c4)c3)c(Cl)c2)C1
< 10 | 11 | 11 | CC(C)(C)c1cc(-c2cncc(-c3ccc(C(=O)N4CCC(F)CC4)cc3Cl)c2)ccn1
